# Data taken from PubChem BioAssay (NCI).
#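 Test compounds were applied to cells in 96-well plates for 48 hours at 5 doses. Here, GI50 denotes the concentration required for 50% inhibition of growth. The concentration for full growth arrest is given as TGI.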
# Experiments:
# Test in all cases: DTP human tumour cell line panel, 48 h
# [1] = tested on: SF-295 CNS
# [2] = tested on: SR leukemia
# [3] = tested on: SN12C renal
# [4] = tested on: TK-10 renal
# [5] = tested on: NCI/ADR-RES ovarian
# [6] = tested on: HCT-15 colon
# [7] = tested on: LOX IMVI melanoma
# [8] = tested on: KM12 colon
# [9] = tested on: HL-60(TB) leukemia
# [10] = tested on: NCI-H23 lung
# [11] = tested on: EKVX NSCLC
# [12] = tested on: OVCAR-5 ovarian
# [13] = tested on: HOP-62 NSCLC
# [14] = tested on: BT-549 breast
# [15] = tested on: MALME-3M melanoma
# [16] = tested on: OVCAR-3 ovarian
# [17] = tested on: COLO 205 colon
# [18] = tested on: SF-539 CNS
# [19] = tested on: NCI-H460 lung
# [20] = tested on: MDA-MB-231 breast
# [21] = tested on: SF-268 CNS
# [22] = tested on: SK-MEL-5 melanoma
# [23] = tested on: MDA-MB-468 breast
# [24] = tested on: A498 renal
# [25] = tested on: NCI-H226 lung
# [26] = tested on: HS 578T breast
# [27] = tested on: SNB-75 CNS
# [28] = tested on: M14 melanoma
# [29] = tested on: HT29 colon
smiles,measurement,setting,value
Cc1ccc(Cl)cc1NC(=O)N/C(N)=N/c1nc2ccccc2s1,GI50,[1],29.9 nM
same,TGI,[1],1300 nM
same,GI50,[2],51.3 nM
same,GI50,[3],64.1 nM
same,TGI,[3],2440 nM
same,GI50,[4],4950 nM
same,TGI,[4],16600 nM
same,GI50,[5],23 nM
same,TGI,[5],54.9 nM
same,GI50,[6],40.5 nM
same,TGI,[6],3000 nM
same,GI50,[7],61.9 nM
same,TGI,[7],1520 nM
same,GI50,[8],45.5 nM
same,TGI,[8],7120 nM
same,GI50,[9],30.9 nM
same,TGI,[9],843 nM
same,GI50,[10],45.2 nM
same,TGI,[10],3570 nM
same,GI50,[11],109 nM
same,TGI,[11],15200 nM
same,GI50,[12],131 nM
same,TGI,[12],4960 nM
same,GI50,[13],50.8 nM
same,TGI,[13],2980 nM
same,GI50,[14],183 nM
same,TGI,[14],1370 nM
same,GI50,[15],54.4 nM
same,TGI,[15],12000 nM
same,GI50,[16],36.8 nM
same,TGI,[16],1330 nM
same,GI50,[17],67.9 nM
same,TGI,[17],285 nM
same,GI50,[18],22.2 nM
same,TGI,[18],54.7 nM
same,GI50,[19],39.1 nM
same,TGI,[19],1320 nM
same,GI50,[20],39.2 nM
same,TGI,[20],278 nM
same,GI50,[21],493 nM
same,TGI,[21],26600 nM
same,GI50,[22],33.2 nM
same,TGI,[22],136 nM
same,GI50,[23],217 nM
same,TGI,[23],650 nM
same,GI50,[24],12400 nM
same,TGI,[24],25800 nM
same,GI50,[25],187 nM
same,TGI,[25],2550 nM
same,GI50,[26],34.3 nM
same,TGI,[26],22700 nM
same,GI50,[27],125 nM
same,TGI,[27],9290 nM
same,GI50,[28],25.6 nM
same,TGI,[28],523 nM
same,GI50,[29],28.9 nM
same,TGI,[29],118 nM
